# Results as given in patent US8906925B2, “Pyrido[4,3-B]indoles containing rigid moieties” (Medivation Technologies, Inc., priority 2008, dated 2014).
# Like-named read-outs stand apart in the source and are kept apart here.
# How the values were obtained:
# histamine receptor H1 = histamine receptor H1 (Homo sapiens, UniProt P35367); test: Histamine H1 radioligand binding ([3H]Pyrilamine); conditions: read-out: Histamine Binding (1 μM) H1, percent inhibition of specific binding, 1 μM
# Description: To evaluate in radioligand binding assays the activity of compounds of the invention, human recombinant histamine H1 receptor expressed in Chinese hamster ovary (CHO) cells (De Backer, M. D. et al., Biochem. Biophys. Res. Comm. 197(3):1601, 1993) in a modified Tris-HCl buffer (50 mM Tris-HCl, pH 7.4, 2 mM MgCl2, 100 mM NaCl, 250 mM Sucrose) was used. Compounds of the invention were incubated with 1.2 nM [^3H]Pyrilamine for 180 min. at 25° C. Non-specific binding was estimated in the presence of 1 μM pyrilamine. Receptor proteins were filtered and washed, the filters were then counted to determine [^3H]Pyrilamine specifically bound. Compounds were screened at 1 μM or lower, using 1% DMSO as vehicle. Biochemical assay results are presented as the percent inhibition of specific binding in Table 8.
# [1] = biological target: human dopamine D2L receptor (Homo sapiens, UniProt P14416); test: Dopamine D2L radioligand binding ([3H]Spiperone); conditions: compound at 1 μM
# Chain of human dopamine D2L receptor (P14416 whole entry): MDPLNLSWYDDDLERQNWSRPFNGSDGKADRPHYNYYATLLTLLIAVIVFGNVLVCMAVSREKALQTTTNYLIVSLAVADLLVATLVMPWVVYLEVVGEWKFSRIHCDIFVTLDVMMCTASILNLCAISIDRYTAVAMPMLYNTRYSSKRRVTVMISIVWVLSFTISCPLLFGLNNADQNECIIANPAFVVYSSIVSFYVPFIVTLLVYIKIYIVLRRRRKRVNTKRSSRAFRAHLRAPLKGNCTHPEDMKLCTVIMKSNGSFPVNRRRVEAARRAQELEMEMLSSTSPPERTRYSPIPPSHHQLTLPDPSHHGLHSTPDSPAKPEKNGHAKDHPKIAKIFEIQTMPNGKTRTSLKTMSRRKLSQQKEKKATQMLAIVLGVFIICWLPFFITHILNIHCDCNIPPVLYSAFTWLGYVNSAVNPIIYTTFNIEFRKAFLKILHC
# Source text: Non-specific binding was estimated in the presence of […] Haloperidol. Receptor proteins were filtered and washed, the filters were then counted to determine [^3H]Spiperone specifically bound. […] Biochemical assay results are presented as the percent inhibition of specific binding in Table 9.
# [2] = […] [3H]Spiperone, read-out: Inhibition of ligand binding, Dopamine D2L (percent inhibition of specific binding)
# [3] = percent inhibition of specific binding, read-out: Inhibition of ligand binding, Dopamine D2L
# Chain of histamine receptor H1 (P35367 whole entry): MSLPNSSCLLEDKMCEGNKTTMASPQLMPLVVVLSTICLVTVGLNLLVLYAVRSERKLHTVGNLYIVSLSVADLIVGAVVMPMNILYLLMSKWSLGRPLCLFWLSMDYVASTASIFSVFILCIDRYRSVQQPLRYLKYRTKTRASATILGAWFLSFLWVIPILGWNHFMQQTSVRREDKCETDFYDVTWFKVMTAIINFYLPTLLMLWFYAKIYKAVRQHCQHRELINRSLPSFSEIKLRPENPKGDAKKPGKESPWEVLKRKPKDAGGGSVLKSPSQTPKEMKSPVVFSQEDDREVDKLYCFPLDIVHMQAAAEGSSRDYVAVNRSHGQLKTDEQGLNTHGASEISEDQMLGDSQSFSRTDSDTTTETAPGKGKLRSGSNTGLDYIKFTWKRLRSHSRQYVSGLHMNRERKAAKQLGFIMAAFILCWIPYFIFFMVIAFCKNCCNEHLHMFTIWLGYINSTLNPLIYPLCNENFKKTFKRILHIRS
SMILES,inhibition at 1 µM (histamine receptor H1) [%],"inhibition at 1 µM [1, 2] [%]","inhibition at 1 µM [1, 3] [%]"
"Cc1ccc2c(c1)c1c(n2C#Cc2ccoc2)CCN(C)C1 [Compound No. 492, 5-(furan-3-ylethynyl)-2,8-dimethyl-2,3,4,5-tetrahydro-1H-pyrido[4,3-b]indole]",68,60,
"Cc1ccc2c(c1)c1c(n2C#Cc2ccsc2)CCN(C)C1 [Compound No. 491, 2,8-dimethyl-5-(thiophen-3-ylethynyl)-2,3,4,5-tetrahydro-1H-pyrido[4,3-b]indole]",52,82,
"C/C(=C\n1c2c(c3cc(Cl)ccc31)CN(C)CC2)c1ccncn1 [Compound 289, (E)-8-chloro-2-methyl-5-(2-(pyrimidin-4-yl)prop-1-enyl)-2,3,4,5-tetrahydro-1H-pyrido[4,3-b]indole]",34,,90
"C/C(=C\n1c2c(c3cc(Cl)ccc31)CN(C)CC2)c1cccs1 [Compound 338, (E)-8-chloro-2-methyl-5-(2-(thiophen-2-yl)prop-1-enyl)-2,3,4,5-tetrahydro-1H-pyrido[4,3-b]indole]",83,,97
"Cc1ccc2c(c1)c1c(n2/C(=C(/F)c2ccncc2)c2ccncc2)CCN(C)C1 [compound 425, (E)-5-(2-fluoro-1,2-di(pyridin-4-yl)vinyl)-2,8-dimethyl-2,3,4,5-tetrahydro-1H-pyrido[4,3-b]indole]",4,6,
"C=C(Cn1c2c(c3cc(Cl)ccc31)CN(C)C(C)C2)c1ccncc1 (stereo not shown) [Compound 365, 8-chloro-2,3-dimethyl-5-(2-(pyridin-4-yl)allyl)-2,3,4,5-tetrahydro-1H-pyrido[4,3-b]indole]",92,49,
"C=C(Cn1c2c(c3cccc(F)c31)CN(C)CC2)c1ccncc1 [Compound No. 363, 6-fluoro-2-methyl-5-(2-(pyridin-4-yl)allyl)-2,3,4,5-tetrahydro-1H-pyrido[4,3-b]indole]",62,53,
"CN1CCc2c(c3cc(Cl)ccc3n2/C=C(/c2ccncc2)C(C)(C)C)C1 [Compound No. 286, (E)-8-chloro-5-(3,3-dimethyl-2-(pyridin-4-yl)but-1-enyl)-2-methyl-2,3,4,5-tetrahydro-1H-pyrido[4,3-b]indole]",19,,23
"CCCc1ccc(C#Cn2c3c(c4cc(Cl)ccc42)CN(C)CC3)cn1 [Compound No. 487, 8-chloro-2-methyl-5-((6-propylpyridin-3-yl)ethynyl)-2,3,4,5-tetrahydro-1H-pyrido[4,3-b]indole]",75,17,
"C/C(=C\n1c2c(c3cc(Cl)ccc31)CN(C)CC2)c1nccs1 [Compound 370, (E)-2-(1-(8-chloro-2-methyl-3,4-dihydro-1H-pyrido[4,3-b]indol-5(2H)-yl)prop-1-en-2-yl)thiazole]",72,63,
"Cc1ccc2c(c1)c1c(n2C#Cc2cccs2)CCN(C)C1 [Compound No. 493, 2,8-dimethyl-5-(thiophen-2-ylethynyl)-2,3,4,5-tetrahydro-1H-pyrido[4,3-b]indole]",69,56,
"Cc1ccc2c(c1)c1c(n2CC(C)(O)c2ccncc2)CCN(CC(F)(F)F)C1 (stereo not shown) [Compound 341, 1-(8-methyl-2-(2,2,2-trifluoroethyl)-3,4-dihydro-1H-pyrido[4,3-b]indol-5(2H)-yl)-2-(pyridin-4-yl)propan-2-ol]",11,,2
"C/C(=C\n1c2c(c3cc(C)ccc31)CN(C)CC2)c1cc(Cl)cc(Cl)c1 [compound 410, (E)-5-(2-(3,5-dichlorophenyl)prop-1-enyl)-2,8-dimethyl-2,3,4,5-tetrahydro-1H-pyrido[4,3-b]indole]",,47,

# More lines, now with the values ahead:
inhibition at 1 µM (histamine receptor H1) [%],"inhibition at 1 µM [1, 2] [%]","inhibition at 1 µM [1, 3] [%]",SMILES
4,16,,COCCNc1ccc2c(c1)c1c(n2/C=C(\C)c2ccncc2)CCN(C)C1 [compound 440]
91,64,,"COc1ccc(/C(C)=C/n2c3c(c4cc(C)ccc42)CN(C)CC3)cn1 [compound 441, (E)-5-(2-(6-methoxypyridin-3-yl)prop-1-enyl)-2,8-dimethyl-2,3,4,5-tetrahydro-1H-pyrido[4,3-b]indole]"
12,69,,C/C(=C\n1c2c(c3cc(C)ccc31)CN(C)CC2)c1ccc(C(=O)N(C)C)cc1 [compound 436]
66,91,,"C/C(=C/n1c2c(c3cc(Cl)ccc31)CN(C)CC2)c1ccncc1 [compound 384, (Z)-8-chloro-2-methyl-5-(2-(pyridin-4-yl)prop-1-enyl)-2,3,4,5-tetrahydro-1H-pyrido[4,3-b]indole]"
61,100,,"C/C(=C\n1c2c(c3cc(Cl)ccc31)CN(CCC(C)(C)O)CC2)c1ccc(F)cc1 [compound 414, (E)-4-(8-chloro-5-(2-(4-fluorophenyl)prop-1-enyl)-3,4-dihydro-1H-pyrido[4,3-b]indol-2(5H)-yl)-2-methylbutan-2-ol]"
48,87,,"C/C(=C/n1c2c(c3cc(Cl)ccc31)CN(C)CC2)c1ccncc1C [compound 417, (Z)-8-chloro-2-methyl-5-(2-(3-methylpyridin-4-yl)prop-1-enyl)-2,3,4,5-tetrahydro-1H-pyrido[4,3-b]indole]"
13,56,,"Cc1ccc2c(c1)c1c(n2/C=C(\c2ccccc2)c2ccncc2)CCN(C)C1 [compound 455, (E)-2,8-dimethyl-5-(2-phenyl-2-(pyridin-4-yl)vinyl)-2,3,4,5-tetrahydro-1H-pyrido[4,3-b]indole]"
21,80,,"COc1ccc(/C(C)=C/n2c3c(c4cc(Cl)ccc42)CN(C)CC3)cn1 [compound 454, (E)-8-chloro-5-(2-(6-methoxypyridin-3-yl)prop-1-enyl)-2-methyl-2,3,4,5-tetrahydro-1H-pyrido[4,3-b]indole]"
89,80,,"C/C(=C/n1c2c(c3cc(Cl)ccc31)CN(C)CC2)c1ccc(F)cc1 [compound 397, (Z)-8-chloro-5-(2-(4-fluorophenyl)prop-1-enyl)-2-methyl-2,3,4,5-tetrahydro-1H-pyrido[4,3-b]indole]"
32,76,,"C/C(=C\n1c2c(c3cc(C)ccc31)CN(C)CC2)c1ccc(S(C)(=O)=O)cc1 [Compound No. 462, (E)-2,8-dimethyl-5-(2-(4-(methylsulfonyl)phenyl)prop-1-enyl)-2,3,4,5-tetrahydro-1H-pyrido[4,3-b]indole]"
23,,66,"CC/C(=C\n1c2c(c3cc(C)ccc31)CN(C)CC2)c1ccncc1 [Compound 283, (E)-2,8-dimethyl-5-(2-(pyridin-4-yl)but-1-enyl)-2,3,4,5-tetrahydro-1H-pyrido[4,3-b]indole]"
17,80,,"COc1c(F)cc(/C(C)=C/n2c3c(c4cc(C)ccc42)CN(C)CC3)cc1F [compound 456, (E)-5-(2-(3,5-difluoro-4-methoxyphenyl)prop-1-enyl)-2,8-dimethyl-2,3,4,5-tetrahydro-1H-pyrido[4,3-b]indole]"
33,14,,"CO/C(=C(/C)n1c2c(c3cc(C)ccc31)CN(C)CC2)c1ccncc1 [compound 418, (Z)-5-(1-methoxy-1-(pyridin-4-yl)prop-1-en-2-yl)-2,8-dimethyl-2,3,4,5-tetrahydro-1H-pyrido[4,3-b]indole]"
98,44,,"C/C=C(/c1ccccc1)n1c2c(c3cc(C)ccc31)CN(C)CC2 [compound 408, (Z)-2,8-dimethyl-5-(1-phenylprop-1-enyl)-2,3,4,5-tetrahydro-1H-pyrido[4,3-b]indole]"
69,99,,"C/C(=C\n1c2c(c3cc(Cl)ccc31)CN(C)CC2)c1cc(C)nc(C)c1 [compound 393, (E)-8-chloro-5-(2-(2,6-dimethylpyridin-4-yl)prop-1-enyl)-2-methyl-2,3,4,5-tetrahydro-1H-pyrido[4,3-b]indole]"
8,25,,"C/C(=C\n1c2c(c3cc(C)ccc31)CN(C)CC2)c1cnc(C)cn1 [compound 386, (E)-2,8-dimethyl-5-(2-(5-methylpyrazin-2-yl)prop-1-enyl)-2,3,4,5-tetrahydro-1H-pyrido[4,3-b]indole]"
46,79,,"CCCCNc1ccc2c(c1)c1c(n2/C=C(\C)c2ccc(F)cc2)CCN(C)C1 [compound 432, (E)-N-butyl-5-(2-(4-fluorophenyl)prop-1-enyl)-2-methyl-2,3,4,5-tetrahydro-1H-pyrido[4,3-b]indol-8-amine]"
50,32,,"Cc1ccc2c(c1)c1c(n2/C=C(\F)c2ccncc2)CCN(C)C1 [compound 426, (Z)-5-(2-fluoro-2-(pyridin-4-yl)vinyl)-2,8-dimethyl-2,3,4,5-tetrahydro-1H-pyrido[4,3-b]indole]"
